# Results from a melting point compilation (Tetko et al.; mined from patent text by program, amines drawn as free bases though some values may be those of a salt).
row,SMILES,melting point
1,CC(C)(C)C(=O)c1cn(COCC[Si](C)(C)C)c2ncc(-c3ccc4c(ccn4Cc4ccccn4)c3)nc12,194 to 196 °C
2,O=[N+]([O-])c1c(NCCC23CCCN2CCC3)cnc2ccccc12,106 to 108 °C
3,"O=C(O)CCCCC1SCc2[nH]c(=O)[nH]c21 (single isomer, unassigned; (-))",189 to 199 °C
4,O=C(CBr)Nc1ccc(Br)cc1C(=O)O,203 to 204 °C
5,C=C1C(O)C(CO)OC1n1cc(I)c(N)nc1=O (stereo not given),159 to 161 °C
6,CC(=O)NCc1ccc2c(c1)N(C1CCN(CCc3ccc(F)cc3)CC1)CC2,160 to 162 °C
7,CC1CCN(CCCCC(=O)c2ccc3c(c2)Cc2cc(C(=O)CCCCN4CCC(C)CC4)ccc2-3)CC1,143 to 144 °C
8,O=C1CC(c2cccc(-n3ccnc3)c2)=Nc2cc(Cl)c(-c3ccc(F)cc3)cc2N1,209 to 211 °C
9,Nc1c(Cl)cc(Cl)n2nc(SCc3ccccc3)nc12,118 to 119 °C
10,CC(=O)c1nc2cc(Cl)ccc2cc1OCc1ccccc1,76 to 77 °C
11,CCCC(=O)c1cc2c(=O)c(C(=O)O)cn(CC)c2cc1C,208 to 209 °C
12,O=C1CCCC2=C1C(c1ccncc1)C1=C(CCS1)N2 (stereo not given),> 250 °C
13,CCC(CC)(OC)c1ccc(Cl)c2nc3n(c12)CCCN3c1ccc(Cl)cc1C(F)(F)F,172 to 173 °C
14,Cc1cc(C)c(-c2cn(C)c3nc(N)[nH]c(=O)c23)c(C)c1,184 to 186 °C
15,Nc1c(C=O)c(=O)n(-c2ccccc2)c(=O)n1-c1ccccc1,141 to 142 °C
16,CS(=O)(=O)c1ccc(Oc2ccc3[nH]c(C4=NCC(CC(=O)O)S4)cc3c2)cn1 (stereo not given),205 to 208 °C
17,CCOC(=O)CNc1ncccc1NC(=O)c1ccc(OC)cc1,130 to 131 °C
18,CCn1cc(-c2cccc(Cl)c2)c(=O)n1-c1cccc(C(F)(F)F)c1,113 to 114 °C
19,O=C1c2ccccc2C(=O)N1OCc1c(Cl)cccc1Cl,201 to 206 °C
20,O=C(O)Cn1c(=O)c(=O)[nH]c2cc([N+](=O)[O-])c(-n3ccc(CN4CCN(C(c5ccccc5)c5ccccc5)CC4)c3)cc21,> 245 °C
21,Cc1cccc(N2CCOCC2)c1NC(N)=S,199 °C
22,Cc1ccc(/C=C/C2=CCN(Cc3ccc(Cl)cc3)CC2)cc1,122 to 124 °C
23,CCC(CC)n1cc(Br)nc(N2CCc3cc(OC)cc(Br)c32)c1=O,133 to 135 °C
24,COc1ccc(C(N2CCN(c3ncccn3)CC2)N2CCCC2=O)cc1 (stereo not given),166 to 170 °C

row,SMILES,melting point
1,CCOc1ccc(Cc2cn(C3OC(COC(C)=O)C(OC(C)=O)C(OC(C)=O)C3OC(C)=O)c3cccc(Cl)c23)cc1 (stereo not given),166 to 169 °C
2,CC(C)c1ccc2oc(C(O)COc3ccc(C(=O)O)cc3)cc2c1 (stereo not given),148 to 150 °C
3,COC(=O)c1ccc(OCCCN2CCC(C(=O)c3nc4ccccc4s3)CC2)cc1,108 to 110 °C
4,CC1CCc2ncc(C(N)=O)c(=O)n21 (stereo not given),191 °C
5,CCCCNC(=O)[C@@H](C[C@H](O)[C@H](CC1CCCCC1)NC(=O)OC(C)(C)C)C(C)(C)O,91 to 93 °C
6,COc1ncccc1Nc1c(NC(NC(=O)c2cccc(Cl)c2)C(C)(C)C)c(=O)c1=O (stereo not given),208 to 210 °C
7,Cc1c2n(c(=O)n(Cc3ccccc3)c1=O)CCCS2,141 to 142 °C
8,CC(C)c1cccc2[nH]c(C(=O)O)cc(=O)c12,> 250 °C
9,COC(=O)c1c(OCc2ccccc2)ccc2c1CC[C@@H](N)[C@@H]2O (relative stereo),124 to 126 °C
10,CC(=O)c1c(-c2ccc(Cl)cc2)c(-c2ccc(Cl)cc2)nn(CCO)c1=O,191 to 193 °C
11,CC(C)(C)c1ccc([C@@H]2C[C@H]3C=C(c4c[nH]c(-c5ccc(F)cc5)c4-c4ccncc4)CCN3C2)cc1,226 to 228 °C
12,O=C1c2ccc(Cl)cc2C(O)N1CCO[N+](=O)[O-] (stereo not given),116 to 118 °C
13,CC(=O)N1c2ccc(-c3ccc(C#N)cc3)cc2C(Nc2ccc(F)cc2)CC1C (stereo not given),140 °C
14,O=[N+]([O-])c1ccc(NS(=O)(=O)C(F)(F)F)c(Oc2ccc3ccccc3c2)c1,117 to 120 °C
15,O=C(N[C@H]1CCCNC1=O)c1cccc(F)c1,164 to 166 °C
16,COc1cc2c(cc1OC)C(C)=[N+]([O-])C(c1ccco1)N2 (stereo not given),191 to 195 °C
17,Cn1c(=O)n(CC(=O)O)c(=O)c2cc([N+](=O)[O-])ccc21,217 to 220 °C
18,CCCCC[C@H]1CC[C@H](CCCCc2ccc(C#N)cc2)CC1,51 °C
19,CCCCCCCC/C=C\CCCCCCCC(=O)NCCNC(=O)CCNC(=O)C1OC(C)(C)OCC1(C)C (stereo not given),110 to 112 °C
20,COc1cc(COc2nn(Cc3ccc(Oc4ccccc4)cc3)cc2C(N)=O)ccc1OCc1nc(-c2ccco2)oc1C,105 to 106 °C
21,Cc1nc2ccccc2n1-c1ccccc1,46 to 48 °C
22,O=C(Nc1cccc(-c2ccnc3c(C(=O)c4cccs4)cnn23)c1)c1cn[nH]c1,165 to 170 °C
23,CC(C)(C)OC(=O)N(C(=N)N)C(=O)OC(C)(C)C,144 to 145 °C
24,CC(C)Cn1c(=O)n(C)c(=O)c2cc(Cc3cccc4ccccc34)sc21,137 to 138 °C

row,SMILES,melting point
1,CN[C@@H](Cc1ccc(C(F)(F)F)cc1)[C@H](O)c1ccc(F)cc1 (racemic),79 to 80 °C
2,COc1c(C(C)(C)C)cc(N2CCCC2=O)cc1C(C)(C)C,90 to 91 °C
3,O=C1Nc2cc(NC(=O)c3cccn(-c4ccc(F)cc4)c3=O)ccc2/C1=C/c1ccc[nH]1,> 300 °C
4,O=C(C=Cc1ccc(C(F)(F)F)cc1)C=Cc1ccc(C(F)(F)F)cc1,148 to 150 °C
5,CC1(C)OCCC(NC(=O)c2cnccc2C(F)(F)F)O1 (stereo not given),155 to 156 °C
6,O=C(NC1CN2CCC1CC2)c1cccc2nc(-c3ccc(Cl)cc3)oc12 (stereo not given),181 to 183 °C
7,Cc1ccc2c(c1)C(=O)C(=O)N2CC(N)=O,171 to 172 °C
8,O=C1CCCc2c1c1ccccc1n2Cc1ccccc1,157 to 158 °C
9,CS(=O)(=O)Nc1cc([N+](=O)[O-])ccc1F,128 to 129 °C
10,CCOCc1nc2c(N)nc3cc(OCC(=O)N4CCOCC4)ccc3c2n1CC(C)(C)O,209 to 211 °C
11,CCOC(=O)C1(NC(=O)Nc2cccc(C)c2)N=C(c2ccc(Cl)cc2)c2ccccc2-n2c(C)nnc21 (stereo not given),168 to 172 °C
12,O=C1NCC=NN1c1cc(Cl)cc(Cl)c1,179 to 181 °C
13,O=C(O)c1ccc(-c2ccc(Cl)cc2)c(O)c1,199 °C
14,O=C1C[C@@H](Nc2ncnc3c2ncn3[C@@H]2O[C@H](CO)[C@@H](O)[C@H]2O)C(=O)N1,167 to 169 °C
15,CCOP(=O)(OCC)c1c(C)c2c(c(C)c1-c1c(OCc3ccccc3)ccc3ccccc13)CN(S(=O)(=O)c1ccc(C)cc1)C2,69.8 to 71.7 °C
16,N#CCN1CCC(Nc2nc3ccccc3n2Cc2ccnc3ccccc23)CC1,190 °C
17,COc1nc(Cl)cc2nc(S(=O)(=O)Nc3ccn(C)n3)nn12,185 to 187 °C
18,CC(C)[C@H](NC(=O)N(C)Cc1csc(C2CC2)n1)C(=O)N[C@@H](Cc1ccccc1)C[C@H](O)[C@H](Cc1ccccc1)NC(=O)OCc1cncs1,70 to 71 °C
19,O=C(O)Cc1ccc(OCCNC(=O)C2Cc3ccccc3N2S(=O)(=O)c2ccc(-c3ccc(F)cc3)c(C(F)(F)F)c2)cc1 (stereo not given),92 °C
20,CCc1cc2c(=O)c3cccc(C(=O)OC)c3n(Cc3ccc(-c4ccccc4-c4nnn[nH]4)cc3)c2s1,228 to 231 °C
21,N#Cc1ccc(C(=O)N[C@@H](Cc2c[nH]c3ccccc23)C(=O)O)cc1,125 to 127 °C
22,CCOC(=O)C1C(=O)Nc2ccccc2SC1c1ccc(Cl)cc1 (stereo not given),206 °C
23,Cc1cc(-n2cnn(Cc3ccc(C(F)(F)F)cc3)c2=O)sc1C(=O)NCc1cccnc1,176 to 178 °C
24,COc1ccc(NCCCCNC(C)=O)c2c1C(=O)c1ccccc1C2=O,151 to 153 °C

row,SMILES,melting point
1,O=C1Cc2ccc(Cl)cc2C(c2ccccc2)C1 (stereo not given),61 to 62 °C
2,CC1(C)C(=CC=C2C(=O)c3ccccc3C2=C(C#N)C#N)N2CCc3cccc1c32,277 °C
3,Cc1nn(-c2ccccn2)c(=O)cc1-c1ccc(O)cc1,252 to 254 °C
4,CCC(=CC(CSc1nnc(C)s1)=NO)C(C)[N+](=O)[O-] (stereo not given),75 to 76 °C
5,O=C1c2ccccc2C(=O)N1Oc1ccc(-c2nc(=O)c3ccccc3s2)cn1,212 to 213 °C
6,CN1Cc2c(C(=O)OC3CCCCC3)ncn2-c2cccc(Cl)c2C1=O,208 to 209 °C
7,O=C(c1ccco1)C1C(=O)N(C(=O)Nc2ccc(F)cc2F)c2ccccc21 (stereo not given),191 to 192 °C
8,CNC(=S)NCCCSc1ncccn1,120 to 121 °C
9,Cc1c(NC(=O)c2ccc(OC[C@@H]3CCCO3)cc2F)ccc2cc(CNCC(C)C)cnc12,133 to 134 °C
10,O=C(CCCCCl)c1ccc2c(c1)Cc1cc(C(=O)CCCCCl)ccc1O2,134 to 135 °C
11,N#Cc1ccc(C(=O)N2CCN(NC(=O)c3ccc(F)cc3)CC2)cc1,222 to 224 °C
12,O=[N+]([O-])c1cc2c(c3ccc(S(=O)(=O)NCCO)cc13)C(CCl)CN2 (stereo not given),173 to 174 °C
13,CN(C)CCOc1cccc(C=CC(=O)N2CCc3c([nH]c4ccccc34)C2c2ccc3c(c2)OCO3)c1 (stereo not given),76 to 78 °C
14,Brc1cccc2[nH]cc(Cc3cccnc3)c12,173 to 174 °C
15,CCOC(=O)Cc1nn(Cc2ccc(Cl)c(Cl)c2)c(=O)c2c(C)cccc12,134 to 137 °C
16,CCc1nn(C)c(CC)c1NC(N)=S,234 to 235 °C
17,O=C(Cn1ccnc1[N+](=O)[O-])NCC(F)(F)C(F)(F)F,136 to 137 °C
18,CC(C)n1nc(OCC(=O)c2ccc(F)cc2)c(-c2ccc(F)cc2)c1-c1ccc(S(C)(=O)=O)cc1,184 to 185 °C
19,Cn1ncc(C(=O)N2CC(F)C2)c1C(=O)Nc1ccn2nc(-c3ccccc3)nc2c1,259 to 262 °C
20,CCOC(=O)C(C)(C)Oc1ccc(CCNC(=O)C(C)(C)Oc2cccc(OC)c2)cc1,68 to 69 °C
21,COC(=O)C(Cc1ccccc1)Oc1ccc2cc(-c3ccc(-c4ccccc4)[nH]3)ccc2c1 (stereo not given),140 to 141 °C
22,N#Cc1ccc(C=CCCC(=O)O)cc1,154 to 156 °C
23,CC1=CC(c2cccc(Cl)c2)C(c2cccs2)=NN1 (stereo not given),109 °C
